Test results reported in PubChem BioAssay (NCI).
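1) Cells in 96-well plates. 2) Compound, 48 h, 5 concentrations. 3) Linear interpolation between surrounding doses. 4) Unreached endpoint = highest concentration. Here, GI50 denotes the concentration required for 50% inhibition of growth. TGI is the concentration that stops growth completely.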

How the values were obtained:
Test in all cases: NCI tumour cell line growth inhibition, 48 h
HCC-2998 colon = test system: HCC-2998 colon
ACHN renal = test system: ACHN renal
K-562 leukemia = test system: K-562 leukemia
RPMI-8226 leukemia = test system: RPMI-8226 leukemia
HCT-15 colon = test system: HCT-15 colon
CAKI-1 renal = test system: CAKI-1 renal
HT29 colon = test system: HT29 colon
KM12 colon = test system: KM12 colon
OVCAR-5 ovarian = test system: OVCAR-5 ovarian
PC-3 prostate = test system: PC-3 prostate
NCI-H226 lung = test system: NCI-H226 lung
SNB-19 CNS = test system: SNB-19 CNS
UO-31 renal = test system: UO-31 renal
HL-60(TB) leukemia = test system: HL-60(TB) leukemia
MOLT-4 leukemia = test system: MOLT-4 leukemia
SK-MEL-28 melanoma = test system: SK-MEL-28 melanoma
MDA-MB-435 = test system: MDA-MB-435
SN12C renal = test system: SN12C renal
RXF 393 renal = test system: RXF 393 renal
HS 578T breast = test system: HS 578T breast
DU-145 prostate = test system: DU-145 prostate
MDA-MB-231 breast = test system: MDA-MB-231 breast
SNB-75 CNS = test system: SNB-75 CNS
TK-10 renal = test system: TK-10 renal
CCRF-CEM leukemia = test system: CCRF-CEM leukemia
HOP-62 NSCLC = test system: HOP-62 NSCLC
SK-MEL-5 melanoma = test system: SK-MEL-5 melanoma
SW-620 colon = test system: SW-620 colon
A498 renal = test system: A498 renal
BT-549 breast = test system: BT-549 breast
OVCAR-3 ovarian = test system: OVCAR-3 ovarian
SK-MEL-2 melanoma = test system: SK-MEL-2 melanoma
COLO 205 colon = test system: COLO 205 colon

Nc1cc(-c2c[nH]c3ccc(F)cc23)nc2cc(-c3c[nH]c4ccc(F)cc34)nn12
GI50 (HCC-2998 colon): 1.95 µM | TGI (HCC-2998 colon): 3.47 µM | GI50 (ACHN renal): 1.88 µM | TGI (ACHN renal): 3.46 µM | GI50 (K-562 leukemia): 2.92 µM | TGI (K-562 leukemia): > 100 µM | GI50 (RPMI-8226 leukemia): 3.05 µM | TGI (RPMI-8226 leukemia): > 100 µM | GI50 (HCT-15 colon): 1.79 µM | TGI (HCT-15 colon): 3.69 µM | GI50 (CAKI-1 renal): 2.03 µM | TGI (CAKI-1 renal): 5.29 µM | GI50 (HT29 colon): 1.8 µM | TGI (HT29 colon): 3.31 µM | GI50 (KM12 colon): 2 µM | TGI (KM12 colon): 4.26 µM | GI50 (OVCAR-5 ovarian): 1.83 µM | TGI (OVCAR-5 ovarian): 3.77 µM | GI50 (PC-3 prostate): 2.11 µM | TGI (PC-3 prostate): 5.31 µM | GI50 (NCI-H226 lung): 2.28 µM | TGI (NCI-H226 lung): 5.52 µM | GI50 (SNB-19 CNS): 3.03 µM | TGI (SNB-19 CNS): 8.97 µM | GI50 (UO-31 renal): 1.68 µM | TGI (UO-31 renal): 3.45 µM | GI50 (HL-60(TB) leukemia): 1.94 µM | TGI (HL-60(TB) leukemia): 5.36 µM | GI50 (MOLT-4 leukemia): 2.33 µM | TGI (MOLT-4 leukemia): 7.29 µM | GI50 (SK-MEL-28 melanoma): 1.83 µM | TGI (SK-MEL-28 melanoma): 3.33 µM | GI50 (MDA-MB-435): 1.74 µM | TGI (MDA-MB-435): 3.39 µM | GI50 (SN12C renal): 1.92 µM | TGI (SN12C renal): 3.73 µM | GI50 (RXF 393 renal): 1.88 µM | TGI (RXF 393 renal): 3.48 µM | GI50 (HS 578T breast): 2.35 µM | TGI (HS 578T breast): 5.71 µM | GI50 (DU-145 prostate): 2.21 µM | TGI (DU-145 prostate): 4.73 µM | GI50 (MDA-MB-231 breast): 1.85 µM | TGI (MDA-MB-231 breast): 3.49 µM | GI50 (SNB-75 CNS): 16.3 µM | TGI (SNB-75 CNS): 36.6 µM | GI50 (TK-10 renal): 2.22 µM | TGI (TK-10 renal): 4.19 µM | GI50 (CCRF-CEM leukemia): 3.13 µM | TGI (CCRF-CEM leukemia): > 100 µM | GI50 (HOP-62 NSCLC): 2.06 µM | TGI (HOP-62 NSCLC): 5.85 µM | GI50 (SK-MEL-5 melanoma): 1.84 µM | TGI (SK-MEL-5 melanoma): 3.28 µM | GI50 (SW-620 colon): 1.78 µM | TGI (SW-620 colon): 3.3 µM | GI50 (A498 renal): 1.66 µM | TGI (A498 renal): 3.25 µM | GI50 (BT-549 breast): 13.3 µM | TGI (BT-549 breast): 34.9 µM | GI50 (OVCAR-3 ovarian): 1.75 µM | TGI (OVCAR-3 ovarian): 3.19 µM | GI50 (SK-MEL-2 melanoma): 14.6 µM | TGI (SK-MEL-2 melanoma): 35.3 µM | GI50 (COLO 205 colon): 1.74 µM | TGI (COLO 205 colon): 3.15 µM
